Measurements reported in ChEMBL document CHEMBL3046407, “Toxicity of monoterpenes against larvae and adults of Colorado potato beetle, Leptinotarsa decemlineata Say (Coleoptera: Chrysomelidae)” (2007).

What was measured:
[1] = tested on: Leptinotarsa decemlineata; test: Insecticidal activity against first-instar larval stage of Leptinotarsa decemlineata infested potato leaves assessed as mortality at 0.5 mg after 48 hr relative to control; assay type: functional
[2] = tested on: Leptinotarsa decemlineata; test: Insecticidal activity against first-instar larval stage of Leptinotarsa decemlineata infested potato leaves assessed as mortality at 0.5 mg after 24 hr relative to control; assay type: functional
[3] = tested on: Leptinotarsa decemlineata; test: Insecticidal activity against first-instar larval stage of Leptinotarsa decemlineata infested potato leaves assessed as mortality at 0.5 mg after 12 hr relative to control; assay type: functional
[4] = tested on: Leptinotarsa decemlineata; test: Insecticidal activity against adult Leptinotarsa decemlineata infested potato leaves assessed as mortality at 1 mg after 96 hr relative to control; assay type: functional
[5] = tested on: Leptinotarsa decemlineata; test: Insecticidal activity against adult Leptinotarsa decemlineata infested potato leaves assessed as mortality at 1 mg after 48 hr relative to control; assay type: functional
[6] = tested on: Leptinotarsa decemlineata; test: Insecticidal activity against adult Leptinotarsa decemlineata infested potato leaves assessed as mortality at 1 mg after 24 hr relative to control; assay type: functional
[7] = tested on: Leptinotarsa decemlineata; test: Insecticidal activity against adult Leptinotarsa decemlineata infested potato leaves assessed as mortality at 1 mg after 12 hr relative to control; assay type: functional
[8] = tested on: Leptinotarsa decemlineata; test: Insecticidal activity against adult Leptinotarsa decemlineata infested potato leaves assessed as mortality at 0.5 mg after 96 hr relative to control; assay type: functional
[9] = tested on: Leptinotarsa decemlineata; test: Insecticidal activity against adult Leptinotarsa decemlineata infested potato leaves assessed as mortality at 0.5 mg after 48 hr relative to control; assay type: functional
[10] = tested on: Leptinotarsa decemlineata; test: Insecticidal activity against adult Leptinotarsa decemlineata infested potato leaves assessed as mortality at 0.5 mg after 24 hr relative to control; assay type: functional
[11] = tested on: Leptinotarsa decemlineata; test: Insecticidal activity against adult Leptinotarsa decemlineata infested potato leaves assessed as mortality at 0.5 mg after 12 hr relative to control; assay type: functional
[12] = tested on: Leptinotarsa decemlineata; assay type: functional, Instar larval stage
[13] = tested on: Leptinotarsa decemlineata; assay type: functional, Instar larval stage; remark: listed apart in the source
[14] = tested on: Leptinotarsa decemlineata; test: Insecticidal activity against third-instar larval stage of Leptinotarsa decemlineata infested potato leaves assessed as mortality at 1 mg after 24 hr relative to control; assay type: functional
[15] = tested on: Leptinotarsa decemlineata; test: Insecticidal activity against third-instar larval stage of Leptinotarsa decemlineata infested potato leaves assessed as mortality at 1 mg after 12 hr relative to control; assay type: functional
[16] = tested on: Leptinotarsa decemlineata; assay type: functional, Instar larval stage; remark: listed apart in the source
[17] = tested on: Leptinotarsa decemlineata; assay type: functional, Instar larval stage; remark: listed apart in the source
[18] = tested on: Leptinotarsa decemlineata; test: Insecticidal activity against third-instar larval stage of Leptinotarsa decemlineata infested potato leaves assessed as mortality at 0.5 mg after 24 hr relative to control; assay type: functional
[19] = tested on: Leptinotarsa decemlineata; test: Insecticidal activity against third-instar larval stage of Leptinotarsa decemlineata infested potato leaves assessed as mortality at 0.5 mg after 12 hr relative to control; assay type: functional
[20] = tested on: Leptinotarsa decemlineata; assay type: functional, Instar larval stage; remark: listed apart in the source
[21] = tested on: Leptinotarsa decemlineata; assay type: functional, Instar larval stage; remark: listed apart in the source
[22] = tested on: Leptinotarsa decemlineata; assay type: functional, Instar larval stage; remark: listed apart in the source
[23] = tested on: Leptinotarsa decemlineata; test: Insecticidal activity against second-instar larval stage of Leptinotarsa decemlineata infested potato leaves assessed as mortality at 1 mg after 12 hr relative to control; assay type: functional
[24] = tested on: Leptinotarsa decemlineata; assay type: functional, Instar larval stage; remark: listed apart in the source
[25] = tested on: Leptinotarsa decemlineata; assay type: functional, Instar larval stage; remark: listed apart in the source
[26] = tested on: Leptinotarsa decemlineata; assay type: functional, Instar larval stage; remark: listed apart in the source
[27] = tested on: Leptinotarsa decemlineata; test: Insecticidal activity against second-instar larval stage of Leptinotarsa decemlineata infested potato leaves assessed as mortality at 0.5 mg after 12 hr relative to control; assay type: functional
[28] = tested on: Leptinotarsa decemlineata; test: Insecticidal activity against first-instar larval stage of Leptinotarsa decemlineata infested potato leaves assessed as mortality at 1 mg after 96 hr relative to control; assay type: functional
[29] = tested on: Leptinotarsa decemlineata; test: Insecticidal activity against first-instar larval stage of Leptinotarsa decemlineata infested potato leaves assessed as mortality at 1 mg after 48 hr relative to control; assay type: functional
[30] = tested on: Leptinotarsa decemlineata; test: Insecticidal activity against first-instar larval stage of Leptinotarsa decemlineata infested potato leaves assessed as mortality at 1 mg after 24 hr relative to control; assay type: functional
[31] = tested on: Leptinotarsa decemlineata; test: Insecticidal activity against first-instar larval stage of Leptinotarsa decemlineata infested potato leaves assessed as mortality at 1 mg after 12 hr relative to control; assay type: functional
[32] = tested on: Leptinotarsa decemlineata; test: Insecticidal activity against first-instar larval stage of Leptinotarsa decemlineata infested potato leaves assessed as mortality at 0.5 mg after 96 hr relative to control; assay type: functional

Compound: CC1(C)[C@H](/C=C(\Cl)C(F)(F)F)[C@@H]1C(=O)O[C@@H](C#N)c1cccc(Oc2ccccc2)c1 (relative stereo) [REL-LAMBDA CYHALOTHRIN]
- mortality [1]: 100%
- mortality [2]: 93.3%
- mortality [3]: 63.3%
- mortality [4]: 100%
- mortality [5]: 100%
- mortality [6]: 100%
- mortality [7]: 90%
- mortality [8]: 100%
- mortality [9]: 100%
- mortality [10]: 100%
- mortality [11]: 100%
- mortality [12]: 93.3%
- mortality [13]: 93.3%
- mortality [14]: 90%
- mortality [15]: 86.7%
- mortality [16]: 100%
- mortality [17]: 100%
- mortality [18]: 86.7%
- mortality [19]: 73.3%
- mortality [20]: 100%
- mortality [21]: 100%
- mortality [22]: 100%
- mortality [23]: 80%
- mortality [24]: 100%
- mortality [25]: 100%
- mortality [26]: 86.7%
- mortality [27]: 73.3%
- mortality [28]: 100%
- mortality [29]: 100%
- mortality [30]: 90%
- mortality [31]: 60%
- mortality [32]: 100%
